Where two headings read alike, the source gives them in different places. Square brackets hold non-standard residues; d marks the D form. Peptide text beside a SMILES is read from it. * marks the point of attachment. 4Thiazolecarbonyl(2-NH2) = Nc1nc(C(=O)*)cs1; Cha = N[C@@H](CC1CCCCC1)C(=O)O
Experiments:
PAR2 = biological target: T1, PAR2 (Homo sapiens, UniProt P55085); assay: xCELLigence RTCA in vitro physiological response, 16HBE14o- cells; format: cell-based; settings: for EC50: peak Normalized Cell Index within 4 hr
T1 construct: 16HBE14o- cells on E-plates in growth medium; endogenous in cells; host or cells: 16HBE14o- cells
T1 sequence (P55085 26-397): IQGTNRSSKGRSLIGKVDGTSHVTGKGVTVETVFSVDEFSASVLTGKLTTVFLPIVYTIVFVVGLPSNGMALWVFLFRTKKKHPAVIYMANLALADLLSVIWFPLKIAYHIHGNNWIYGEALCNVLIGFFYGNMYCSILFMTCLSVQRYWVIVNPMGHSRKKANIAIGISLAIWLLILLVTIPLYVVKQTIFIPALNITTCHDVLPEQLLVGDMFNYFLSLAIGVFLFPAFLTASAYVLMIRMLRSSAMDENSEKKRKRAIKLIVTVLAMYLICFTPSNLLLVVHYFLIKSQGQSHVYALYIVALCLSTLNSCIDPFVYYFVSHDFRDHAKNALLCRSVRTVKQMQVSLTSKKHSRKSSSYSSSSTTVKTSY
Source text: 16HBE14o- cells, a SV40 transformed human bronchial epithelial cell line, were obtained through the California Pacific Medical Center Research Institute (San Francisco, CA, USA). Cells were maintained and expanded as previously described. Briefly, cell lines were expanded in tissue culture flasks prior to transfer to 96 well E-plates (Roche) for experiments. Flasks and 96 well E-plates were coated initially with a matrix coating solution (88% Lechner and LaVeck basal medium, 10% bovine serum albumin (BSA; from 1 mg/ml stock), 1% bovine collagen type I (from 2.9 mg/ml stock), and 1% human fibronectin (from 1 mg/ml stock solution) and incubated for 2 hr at 37°C, after which the coating solution was removed and allowed to dry for at least 1 hr. 16HBE14o- cells were plated at a concentration of 1×10^5 cells/cm^2 and grown in Eagle’s Minimal Essential Medium supplemented with 10% Fetal Bovine Serum (FBS), 2 mM glutamax, penicillin and streptomycin (growth medium) at 37°C in a 5% CO2 atmosphere. Growth medium was replaced every other day until the cells reached confluence (5–7 days). Cells were then transferred to 96 well E-plates for RTCA, or collagen/fibronectin/BSA coated glass coverslips for Ca^2+ imaging experiments.
16HBE14o- cells on E-plates in growth medium and in a 37°C, 5% CO2 incubator were monitored for the establishment for relative impedance overnight every 15 min using the xCELLigence™ Real Time Cell Analyzer (RTCA, Roche), [28], [30]. When cells reached baseline impedance the next day, and prior to the experiment, the RTCA was moved to room air and temperature where full growth medium was replaced with 100μL modified Hank’s Balanced Saline Solution (HBSS) pre-warmed to 37°C. The RTCA was then allowed to come to room temperature (45–60 min) prior to ligand addition. Each well was then supplemented with 100 µL HBSS containing appropriate ligands to measure concentration response ranges in quadruplicate. Additional wells were used for vehicle controls. Relative impedance in each well was monitored every 30 sec over 4 hr. Peak responses, defined as the maximal change in Normalized Cell Index, were used to define maximal response concentrations and physiological EC50s for each ligand.

MrgprC11 = biological target: T2, MrgprC11 (Mus musculus, UniProt Q8CIP3); assay: Ca2+ response in MrgprC11 transfected CHO cells; format: cell-based
T2 construct: An MrgprC11 cDNA in pcDNA3.1 vector was transfected into CHO cells; expressed in transfected cells; host or cells: CHO cells, transient transfection with Lipofectamine 2000
T2 sequence (Q8CIP3 1-322): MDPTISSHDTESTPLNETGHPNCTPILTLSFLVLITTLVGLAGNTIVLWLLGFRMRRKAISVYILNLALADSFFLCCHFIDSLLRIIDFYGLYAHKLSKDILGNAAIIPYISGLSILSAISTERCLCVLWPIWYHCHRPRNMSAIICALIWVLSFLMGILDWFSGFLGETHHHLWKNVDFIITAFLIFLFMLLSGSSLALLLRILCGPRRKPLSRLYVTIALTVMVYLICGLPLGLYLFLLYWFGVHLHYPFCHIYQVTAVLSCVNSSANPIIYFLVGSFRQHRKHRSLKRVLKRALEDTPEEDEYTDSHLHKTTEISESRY
Description: CHO cells were cultured in DMEM supplemented with 10% FBS and 1% penicillin and streptomycin at 37°C in a 5% CO2 atmosphere. One day before transfection, CHO cells were plated in a 60 mm cell culture dish at a concentration of 1×10^5 cells/cm^2 and grown without antibiotics. An MrgprC11 cDNA in pcDNA3.1 vector was transfected into CHO cells using Lipofectamine™ 2000 (Invitrogen) prior to transfer to coverslips for experiments. Coverslips were coated with 0.1 mg/ml poly-D-lysine (from 2 mg/ml stock) and incubated for 1 hr at room temperature, after which the coating solution was removed and the coverslips were washed twice with double distilled water. CHO cells were seeded on coverslips at a concentration of 1×10^5 cells/cm^2 6 hr after transfection. Transfected cells were incubated for 24 hr prior to Ca^2+ imaging.
16HBE14o- cells or CHO cells were loaded with fura 2-acetomethoxyl ester (CalBiochem or Molecular Probes) for 30 min at room temperature. Cells were washed with HBSS and allowed to sit for at least 20 min prior to digital imaging. For activation and desensitization assay experiments using 16HBE14o- cells, [Ca^2+]i was measured as previously described. Experiments consisted of 20 sec of recording of cells in HBSS to determine resting [Ca^2+]i, followed by a 10 sec wash to introduce ligand and up to 10 min of recording for ligand washes required for desensitization experiments. Briefly, fura-2 fluorescence was observed on an Olympus IX70 microscope with a 40X oil immersion objective after alternating excitation between 340 and 380 nm by a 75 W Xenon lamp linked to a Delta Ram V illuminator (PTI) and a gel optic line. Intracellular Ca^2+ concentration ([Ca^2+]i) for each individual cell in the field of view was calculated by ratiometric analysis of fura-2 fluorescence using equations originally published in [31]. Individual ratios were calculated every sec throughout the experiments. [Ca^2+]i traces over time are averaged [Ca^2+]i of all cells within a field of view (80–120) and are representative of at least 3 experiments. Cells were considered activated by the ligand if their resting [Ca^2+]i was increased above a 200 nM threshold, a 2–4 fold increase above typical resting values. Percent activation graphs are determined from 3–6 experiments for each ligand concentration. Time to threshold in individual cells represent between 200–400 cells from at least 3 experiments at each ligand concentration. Ca^2+ imaging of CHO cells was similar; each ligand concentration tested included at least 3 experiments and a minimum of 200 cells analyzed during each experiment.

mice = assay: In vivo mechanical sensitivity (von Frey) after hindpaw injection; set-up: species or system mouse; settings: 15 pmoles into plantar hindpaw, 1 and 3 hr post-injection
Description: Male ICR mice (Harlan) or PAR2 ^-/- mice and their wild type littermates on a C57Bl/6 background weighing 25–30 grams were used for these studies. Animal protocols were approved by the Institutional Animal Care and Use Committee of The University of Arizona. Compounds were injected into the plantar surface of the hindpaw in a total volume of 25 µL using a 31-gauge needle. Compounds were diluted using sterile saline. Mechanical thresholds were determined using calibrated von Frey filaments (Stoelting Co, Wood Dale, IN) with the up-down method. The experimenter was always blinded to the treatment conditions and animals were randomized such that animals in a single experimental group were never all housed together.

SMILES: CCCCCCCCCCCCCCCCNC(=O)COCC(=O)NCCCOCCOCCOCCCNC(=O)COCC(=O)NCCCOCCOCCOCCCNC(=O)[C@H](CCCNC(=N)N)NC(=O)CNC(=O)[C@@H](NC(=O)[C@H](CC1CCCCC1)NC(=O)c1csc(N)n1)[C@@H](C)CC [Compound 11, 2at-Cha-IGR-PEG2-Hdc]
- EC50 (PAR2): 16 nM

SMILES: CCCCCCCCCCCCCCCCNC(=O)COCC(=O)NCCCOCCOCCOCCCNC(=O)COCC(=O)NCCCOCCOCCOCCCNC(=O)[C@@H](NC(=O)[C@H](CC1CCCCC1)NC(=O)c1csc(N)n1)[C@@H](C)CC [Compound 13, 2at-Cha-I-PEG2-Hdc]
- EC50 (PAR2): 86 nM

SMILES: CCCCCCCCCCCCCCCCNC(=O)COCC(=O)NCCCOCCOCCOCCCNC(=O)COCC(=O)NCCCOCCOCCOCCCNC(=O)COCC(=O)NCCCOCCOCCOCCCNC(=O)c1csc(N)n1 [Compound 6, 2at-PEG3-Hdc]
- RTCA response / agonism (peak Normalized Cell Index) (PAR2): eliminated ligand activity
- RTCA response / agonism (peak Normalized Cell Index) (PAR2; listed as 2at-PEG 3-Hdc): eliminated in vitro activity

SMILES: CCCCCCCCCCCCCCCCNC(=O)COCC(=O)NCCCOCCOCCOCCCNC(=O)COCC(=O)NCCCOCCOCCOCCCNC(=O)COCC(=O)NCCCOCCOCCOCCCNC(=O)[C@@H](NC(=O)[C@H](CC(C)C)NC(=O)c1csc(N)n1)[C@@H](C)CC [Compound 4, 2at-LI-PEG3-Hdc]
- EC50 (PAR2): 310 nM

SMILES: CCCCCCCCCCCCCCCCNC(=O)COCC(=O)NCCCOCCOCCOCCCNC(=O)COCC(=O)NCCCOCCOCCOCCCNC(=O)[C@H](CCCNC(=N)N)NC(=O)CNC(=O)[C@@H](NC(=O)[C@H](CC1CCCCC1)NC(=O)c1ccno1)[C@@H](C)CC [Compound 12, 5io-Cha-IGR-PEG2-Hdc]
- EC50 (PAR2): 6.8 nM

SMILES: CC[C@H](C)[C@H](NC(=O)[C@H](CC1CCCCC1)NC(=O)c1csc(N)n1)C(=O)NCC(=O)N[C@@H](CCCNC(=N)N)C(N)=O [Compound 7, 2at-Cha-IGR-NH2] ({4Thiazolecarbonyl(2-NH2)}-[Cha]IGR-NH2)
- EC50 (PAR2): 490 nM

SMILES: CCCCCCCCCCCCCCCCNC(=O)COCC(=O)NCCCOCCOCCOCCCNC(=O)COCC(=O)NCCCOCCOCCOCCCNC(=O)COCC(=O)NCCCOCCOCCOCCCNC(=O)CNC(=O)[C@@H](NC(=O)[C@H](CC(C)C)NC(=O)c1csc(N)n1)[C@@H](C)CC [Compound 3, 2at-LIG-PEG3-Hdc]
- EC50 (PAR2): 46 nM

SMILES: CC[C@H](C)[C@H](NC(=O)[C@H](CC1CCCCC1)NC(=O)c1csc(N)n1)C(N)=O [Compound 9, 2at-Cha-I-NH2]
- EC50 (PAR2): 1100 nM

SMILES: CCCCCCCCCCCCCCCCNC(=O)COCC(=O)NCCCOCCOCCOCCCNC(=O)COCC(=O)NCCCOCCOCCOCCCNC(=O)COCC(=O)NCCCOCCOCCOCCCNC(=O)[C@H](CC(C)C)NC(=O)[C@H](CCCNC(=N)N)NC(=O)CNC(=O)[C@@H](NC(=O)[C@H](CC(C)C)NC(=O)c1csc(N)n1)[C@@H](C)CC [Compound 1, 2at-LIGRL-PEG3-Hdc]
- EC50 (PAR2): 1.7 nM
- Ca2+ response (% of cells) (MrgprC11; 1 nM): 0%
- Ca2+ response (% of cells) (MrgprC11; 10 nM): 2.5%
- Ca2+ response (% of cells) (MrgprC11; 100 nM): 10%
- Ca2+ response (% of cells) (MrgprC11; 1 µM): 20%
- Ca2+ response (% of cells) (MrgprC11; 10 µM): 88 ± 19%

SMILES: CCCCCCCCCCCCCCCCNC(=O)COCC(=O)NCCCOCCOCCOCCCNC(=O)COCC(=O)NCCCOCCOCCOCCCNC(=O)[C@@H](NC(=O)[C@H](CC1CCCCC1)NC(=O)c1ccno1)[C@@H](C)CC [Compound 14, 5io-Cha-I-PEG2-Hdc]
- EC50 (PAR2): 43 nM

SMILES: CCCCCCCCCCCCCCCCNC(=O)COCC(=O)NCCCOCCOCCOCCCNC(=O)COCC(=O)NCCCOCCOCCOCCCNC(=O)COCC(=O)NCCCOCCOCCOCCCNC(=O)[C@H](CCCNC(=N)N)NC(=O)CNC(=O)[C@@H](NC(=O)[C@H](CC(C)C)NC(=O)c1csc(N)n1)[C@@H](C)CC [Compound 2, 2at-LIGR-PEG3-Hdc]
- EC50 (PAR2): 2.1 nM
- Ca2+ response (% of cells) (MrgprC11; 100 nM): 0.5%

SMILES: CCCCCCCCCCCCCCCCNC(=O)COCC(=O)NCCCOCCOCCOCCCNC(=O)COCC(=O)NCCCOCCOCCOCCCNC(=O)COCC(=O)NCCCOCCOCCOCCCNC(=O)C(CC(C)C)NC(=O)c1csc(N)n1 [Compound 5, 2at-L-PEG3-Hdc]
- RTCA response / agonism (peak Normalized Cell Index) (PAR2): eliminated ligand activity
- RTCA response / agonism (peak Normalized Cell Index) (PAR2; listed as 2at-L-PEG 3-Hdc): eliminated in vitro activity
- mechanical hypersensitivity (von Frey) (mice): inactive
- mechanical hypersensitivity (von Frey) (mice; listed as 2at-L-PEG 3-Hdc): lacked efficacy

Source: publication PMC4057235, “Development and Evaluation of Small Peptidomimetic Ligands to Protease-Activated Receptor-2 (PAR2) through the Use of Lipid Tethering” (PLoS ONE, 2014)
